Experiments:
[1] = test system: brains, heart, liver, muscle, and DRG of the NHPs; assay: Maturation of TTM-001 and TTM-002 capsids, NGS enrichment in NHP tissues; format: in vivo; conditions: relative to AAV9 control
Method in brief: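 Variants carry mutations within and flanking the loop IV peptide insert: positions 450–466 were triplet-randomized, while positions 449–466 received low-frequency point mutations. The combined pool went into two NHPs, and each peptide was scored by NGS enrichment ratio against AAV9.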

[2] = test system: brain; assay: Matured TTM-001 and TTM-002 variants, NGS enrichment in mouse brain; format: in vivo, mice; conditions: relative to AAV9 control
[3] = NGS fold-enrichment of RNA, NHP brain
[4] = NGS fold-enrichment, DRG of NHPs
[5] = NGS fold-enrichment, NHP liver DNA
[6] = NGS fold-enrichment, NHP liver RNA
[7] = NGS fold-enrichment, NHP muscle
[8] = NGS fold-enrichment, RNA, brain of NHPs
[9] = NGS fold-enrichment, heart of NHPs
[10] = NGS fold-enrichment, liver DNA of NHPs
[11] = NGS fold-enrichment, liver RNA of NHPs
[12] = NGS fold-enrichment, muscle of NHPs
[13] = NGS fold-enrichment, brain of mice
[14] = NGS fold-enrichment, mouse brain

Sequence | Fold Enrichment relative to AAV9, Brain (NHP) [1, 3] [fold] | Fold Enrichment relative to AAV9, DRG (NHP) [1, 4] [fold] | Fold Enrichment relative to AAV9, DRG (NHP) ([1]; NGS fold-enrichment, NHP DRG) [fold] | Fold Enrichment relative to AAV9, Heart (NHP) ([1]; NGS fold-enrichment, NHP heart) [fold] | Fold Enrichment relative to AAV9, Liver DNA (NHP) [1, 5] [fold] | Fold Enrichment relative to AAV9, Liver RNA (NHP) [1, 6] [fold] | Fold Enrichment relative to AAV9, Muscle (NHP) [1, 7] [fold] | Fold Enrichment relative to AAV9, Brain (NHP) [1, 8] [fold] | Fold Enrichment relative to AAV9, Heart (NHP) [1, 9] [fold] | Fold Enrichment relative to AAV9, Liver DNA (NHP) [1, 10] [fold] | Fold Enrichment relative to AAV9, Liver RNA (NHP) [1, 11] [fold] | Fold Enrichment relative to AAV9, Muscle (NHP) [1, 12] [fold] | Fold Enrichment relative to AAV9, Brain (Mouse) [2, 13] [fold] | Fold Enrichment relative to AAV9, Brain (Mouse) [2, 14] [fold] | further results
KSVNGNGSPHSKAQNQQT | 99.385 | 0.000 | 0.000 | 1.329 | 0.079 | 0.359 | 0.000 | 99.385 | 1.329 | 0.079 | 0.359 | 0.000 | 51.016 | 51.016 | –
KTANGSGSPHSKAQYQQT | – | 0.000 | – | – | – | – | – | 73.038 | 0.000 | 0.160 | 0.153 | 0.000 | 139.451 | – | –
KTCNASGSPHSKAQNQQT | – | – | – | – | – | – | – | – | – | – | – | – | – | – | Fold Enrichment relative to AAV9, Brain (NHP) ([1]; NGS fold-enrichment of matured AAV capsid variants, NHP brain, RNA): 52.998 fold; Fold Enrichment relative to AAV9, DRG (NHP) ([1]; NHP DRG): 0.000 fold; Fold Enrichment relative to AAV9, Heart (NHP) ([1]; NHP heart): 0.011 fold; Fold Enrichment relative to AAV9, Liver DNA (NHP) ([1]; NHP liver, DNA): 0.141 fold; Fold Enrichment relative to AAV9, Liver RNA (NHP) ([1]; NHP liver, RNA): 0.897 fold; Fold Enrichment relative to AAV9, Muscle (NHP) ([1]; NHP muscle): 0.000 fold; Fold Enrichment relative to AAV9, Brain (Mouse) ([2]; mouse brain): 67.934 fold
KTCNGHDSPHKSGRNQQT | 94.616 | – | 0.000 | 0.025 | 0.128 | 0.000 | 0.000 | – | – | – | – | – | – | 12.496 | –
KTCNKSGSPHSKAQNQQT | 83.992 | 0.000 | 0.000 | 0.000 | 0.000 | 0.283 | 0.165 | 83.992 | 0.000 | 0.000 | 0.283 | 0.165 | 119.496 | 119.496 | –
KTDAGHDSPHKSGQNQQT | 88.924 | – | 0.000 | 0.013 | 0.070 | 1.076 | 0.000 | – | – | – | – | – | – | 18.107 | –
KTDKGSGSPHSKAQNQQT | 94.572 | – | 0.000 | 0.037 | 0.367 | 0.951 | 0.000 | – | – | – | – | – | – | 47.888 | –
KTDKMSGSPHSKAQNQQT | – | 0.000 | – | – | – | – | – | 68.167 | 0.000 | 0.205 | 0.017 | 0.000 | 88.234 | – | –
KTDKNSGSPHSKAQNQQT | – | 0.000 | – | – | – | – | – | 70.964 | 0.000 | 0.123 | 0.070 | 0.000 | 62.932 | – | –
KTDKSSGSPHSKAQNQQT | 79.470 | 0.055 | 0.055 | 0.012 | 0.367 | 1.437 | 0.000 | 79.470 | 0.012 | 0.367 | 1.437 | 0.000 | 141.351 | 141.351 | –
KTDKTSGSPHSKAQNQQT | 81.430 | 0.000 | 0.000 | 0.000 | 0.291 | 1.362 | 0.000 | 81.430 | 0.000 | 0.291 | 1.362 | 0.000 | 169.515 | 169.515 | –
KTDKVSGSPHSKAQNQQT | – | 0.000 | – | – | – | – | – | 60.935 | 0.015 | 0.128 | 0.765 | 0.000 | 146.657 | – | –
KTDLKSGSPHSKAQNQQT | – | 0.000 | – | – | – | – | – | 63.152 | 0.000 | 0.377 | 0.285 | 0.012 | 62.687 | – | –
KTDNGHDSPHKSRQNQQT | 105.312 | – | 0.000 | 0.033 | 0.018 | 0.000 | 0.000 | – | – | – | – | – | – | 7.931 | –
